In PubChem BioAssay AID248 (DTP/NCI, 2004):
“And” between values parts separate entries of the source, which are not always exact repeats. Equal values may be shown once. Inconclusive results and toxic doses are left out.

Tested on: L1210 leukemia ip in BDF1 mice, survival T/C
Assay: NCI In Vivo Anticancer Drug Screen. Data for tumor model L1210 Leukemia (intraperitoneal) in B6D2F1 (BDF1) mice
Conditions: endpoint: mean survival time, higher = longer survival
Outline: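 Transplantable tumor model; survival measured in treated vs vehicle control mice. Value = treated/control.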

[1] = dose: 50.0 mg/kg/injection, schedule: Q01DX009 (ip), vehicle: saline with Tween-80
[2] = dose: 200.0 mg/kg/injection, schedule: Q01DX009 (ip), vehicle: saline with Tween-80
[3] = dose: 100.0 mg/kg/injection, schedule: Q04DX003 (ip), vehicle: Klucel (hydroxypropylcellulose) (HPC)
[4] = dose: 200.0 mg/kg/injection, schedule: Q04DX003 (ip), vehicle: Klucel (hydroxypropylcellulose) (HPC)
[5] = dose: 100.0 mg/kg/injection, schedule: Q01DX001 (ip), vehicle: carboxymethylcellulose (CMC)
[6] = dose: 200.0 mg/kg/injection, schedule: Q01DX001 (ip), vehicle: carboxymethylcellulose (CMC)
[7] = dose: 400.0 mg/kg/injection, schedule: Q01DX001 (ip), vehicle: carboxymethylcellulose (CMC)
[8] = dose: 100.0 mg/kg/injection, schedule: Q01DX009 (ip), vehicle: saline with Tween-80
[9] = dose: 25.0 mg/kg/injection, schedule: Q01DX009 (ip), vehicle: saline with Tween-80
[10] = dose: 100.0 mg/kg/injection, schedule: Q04DX003 (ip), vehicle: saline with Tween-80
[11] = dose: 200.0 mg/kg/injection, schedule: Q04DX003 (ip), vehicle: saline with Tween-80
[12] = dose: 400.0 mg/kg/injection, schedule: Q04DX003 (ip), vehicle: saline with Tween-80
[13] = dose: 100.0 mg/kg/injection, schedule: Q01DX009 (ip), vehicle: Klucel (hydroxypropylcellulose) (HPC)
[14] = dose: 200.0 mg/kg/injection, schedule: Q01DX009 (ip), vehicle: Klucel (hydroxypropylcellulose) (HPC)
[15] = dose: 25.0 mg/kg/injection, schedule: Q01DX001 (ip), vehicle: carboxymethylcellulose (CMC)
[16] = dose: 100.0 mg/kg/injection, schedule: Q04DX002 (ip), vehicle: Klucel (hydroxypropylcellulose) (HPC)

With `O=C1NC(C2CCC3CN32)C(=O)NC1C1CCC2CN21` (centres undefined) the T/C (dose: 0.2 mg/kg/injection, schedule: Q01DX009 (ip), vehicle: saline) was 102 % of control and 105 % of control, the T/C (dose: 0.4 mg/kg/injection, schedule: Q01DX009 (ip), vehicle: saline) was 110 % of control and 113 % of control and the T/C (dose: 0.5 mg/kg/injection, schedule: Q01DX001 (ip), vehicle: Klucel (hydroxypropylcellulose) (HPC)) was 101 % of control. The T/C (dose: 0.8 mg/kg/injection, schedule: Q01DX009 (ip), vehicle: saline) was 110 % of control, the T/C (dose: 1.0 mg/kg/injection, schedule: Q01DX001 (ip), vehicle: Klucel (hydroxypropylcellulose) (HPC)) was 101 % of control and the T/C (dose: 1.1 mg/kg/injection, schedule: Q01DX009 (ip), vehicle: saline) was 112 % of control. For the same compound, the T/C (dose: 2.0 mg/kg/injection, schedule: Q01DX001 (ip), vehicle: Klucel (hydroxypropylcellulose) (HPC)) was 151 % of control, the T/C (dose: 2.7 mg/kg/injection, schedule: Q01DX009 (ip), vehicle: saline) was 163 % of control and the T/C (dose: 5.0 mg/kg/injection, schedule: Q01DX009 (ip), vehicle: saline) was 182 % of control. For the same compound, the T/C (dose: 10.0 mg/kg/injection, schedule: Q01DX009 (ip), vehicle: saline) was 103 % of control, the T/C (dose: 16.0 mg/kg/injection, schedule: Q01DX001 (ip), vehicle: Klucel (hydroxypropylcellulose) (HPC)) was 164 % of control and 271 % of control and the T/C (dose: 24.0 mg/kg/injection, schedule: Q01DX001 (ip), vehicle: Klucel (hydroxypropylcellulose) (HPC)) was 169 % of control. For the same compound, the T/C (dose: 36.0 mg/kg/injection, schedule: Q01DX001 (ip), vehicle: Klucel (hydroxypropylcellulose) (HPC)) was 101 % of control.
`COc1cc2c(cc1OC)C(CCCCCCCC1NCCc3cc(OC)c(OC)cc31)NCC2` (centres undefined) was tested, and the T/C (dose: 0.25 mg/kg/injection, schedule: Q01DX015 (ip), vehicle: saline) was 97 % of control, the T/C (dose: 0.5 mg/kg/injection, schedule: Q01DX015 (ip), vehicle: saline) was 100 % of control and the T/C (dose: 1.0 mg/kg/injection, schedule: Q01DX015 (ip), vehicle: saline) was 103 % of control. For the same compound, the T/C (dose: 2.0 mg/kg/injection, schedule: Q01DX015 (ip), vehicle: saline) was 102 % of control, the T/C (dose: 4.0 mg/kg/injection, schedule: Q01DX015 (ip), vehicle: saline) was 106 % of control and the T/C (dose: 8.0 mg/kg/injection, schedule: Q01DX015 (ip), vehicle: carboxymethylcellulose (CMC)) was 91 % of control. For the same compound, the T/C (dose: 16.0 mg/kg/injection, schedule: Q01DX015 (ip), vehicle: carboxymethylcellulose (CMC)) was 91 % of control, the T/C (dose: 50.0 mg/kg/injection, schedule: Q01DX001 (ip), vehicle: saline) was 101 % of control and the T/C (dose: 100.0 mg/kg/injection, schedule: Q01DX001 (ip), vehicle: saline) was 100 % of control.
In the case of `CC(=O)Nc1ccc(/C=N/NC(=O)c2ccc(C)cc2)cc1`, the T/C [1] is reported as 93 % of control and the T/C [2] is reported as 90 % of control.
With `CCOC(=O)NCC(CCN(C)C)(c1cccc2ccccc12)C(C)C` (centres undefined) the T/C (dose: 100.0 mg/kg/injection, schedule: Q01DX009 (ip), vehicle: saline) was 98 % of control, the T/C [3] was 97 % of control and the T/C (dose: 200.0 mg/kg/injection, schedule: Q01DX009 (ip), vehicle: saline) was 107 % of control. The T/C [4] was 97 % of control.
For `O=[N+]([O-])c1ccn(Cc2ccccc2)c1`, the T/C [5] was 97 % of control, the T/C [6] was 88 % of control and the T/C [7] was 92 % of control.
With `CCN=C(c1ccc(NC(=O)c2ccc(C(=O)Nc3ccc(C(=NCC)N(CC)C(=O)C(F)(F)C(F)(F)C(F)(F)F)cc3)cc2)cc1)N(CC)C(=O)C(F)(F)C(F)(F)C(F)(F)F` the T/C (dose: 1.5 mg/kg/injection, schedule: Q01DX015 (ip), vehicle: methylcellulose (MC)) was 96 % of control, the T/C (dose: 3.0 mg/kg/injection, schedule: Q01DX015 (ip), vehicle: methylcellulose (MC)) was 113 % of control and the T/C (dose: 7.5 mg/kg/injection, schedule: Q01DX015 (ip), vehicle: methylcellulose (MC)) was 153 % of control. The T/C (dose: 12.0 mg/kg/injection, schedule: Q01DX015 (ip), vehicle: methylcellulose (MC)) was 124 % of control.
For `CC(=O)COCC1CO1` (centres undefined), the T/C [1] was 92 % of control, the T/C [8] was 92 % of control and the T/C [2] was 100 % of control.
`C=CCCCCCCCCC(N)=O` was tested, and the T/C [9] was 108 % of control, the T/C [1] was 96 % of control and the T/C [10] was 101 % of control. For the same compound, the T/C [11] was 95 % of control and the T/C [12] was 184 % of control.
With `O=C(O)c1c(Br)c(Br)c(Br)c(Br)c1C(=O)Nc1cc([N+](=O)[O-])ccc1O` the T/C [13] was 106 % of control, the T/C [14] was 122 % of control and the T/C (dose: 400.0 mg/kg/injection, schedule: Q01DX009 (ip), vehicle: Klucel (hydroxypropylcellulose) (HPC)) was 101 % of control.
`C[NH-].C[NH-].C[NH-].[Cl][Rh]([Cl])[Cl]` was tested, and the T/C (dose: 25.0 mg/kg/injection, schedule: Q04DX003 (ip), vehicle: saline) was 96 % of control, the T/C (dose: 50.0 mg/kg/injection, schedule: Q04DX003 (ip), vehicle: saline) was 96 % of control and the T/C (dose: 100.0 mg/kg/injection, schedule: Q04DX003 (ip), vehicle: saline) was 96 % of control.
With `ClCc1ccc(CCl)c(Cl)c1` the T/C (dose: 25.0 mg/kg/injection, schedule: Q04DX003 (ip), vehicle: Klucel (hydroxypropylcellulose) (HPC)) was 86 % of control, the T/C (dose: 50.0 mg/kg/injection, schedule: Q04DX003 (ip), vehicle: Klucel (hydroxypropylcellulose) (HPC)) was 97 % of control and the T/C [3] was 94 % of control.
In the case of `OC(c1ccc(Br)cc1)(c1cccs1)C1CC1` (centres undefined), the T/C [8] is reported as 98 % of control, the T/C [10] is reported as 103 % of control and the T/C [2] is reported as 98 % of control. For the same compound, the T/C [11] was 100 % of control, the T/C (dose: 400.0 mg/kg/injection, schedule: Q01DX009 (ip), vehicle: saline with Tween-80) was 98 % of control and the T/C [12] was 97 % of control.
For `Oc1ccc(Br)cc1/C=N\NC(=S)Nc1ccc2cn[nH]c2c1`, the T/C [15] was 90 % of control, the T/C (dose: 50.0 mg/kg/injection, schedule: Q01DX001 (ip), vehicle: carboxymethylcellulose (CMC)) was 101 % of control and the T/C [5] was 93 % of control. For the same compound, the T/C [6] was 86 % of control and the T/C [7] was 107 % of control.
In the case of `C=CCOC(=O)Oc1ccccc1Cl`, the T/C [13] is reported as 92 % of control, the T/C [3] is reported as 95 % of control and the T/C [14] is reported as 89 % of control. The T/C [4] was 97 % of control.
For `Cc1cccc(C)c1N(COC(C)C)C(=O)CCl`, the T/C [8] was 94 % of control and the T/C [2] was 95 % of control.
For `O=C(COc1cc(Cl)c(Cl)cc1Cl)NCCO`, the T/C [16] was 92 % of control, the T/C (dose: 200.0 mg/kg/injection, schedule: Q04DX002 (ip), vehicle: Klucel (hydroxypropylcellulose) (HPC)) was 110 % of control and the T/C (dose: 400.0 mg/kg/injection, schedule: Q04DX002 (ip), vehicle: Klucel (hydroxypropylcellulose) (HPC)) was 108 % of control.
`CC(=O)Nc1ccc(/C=C/c2ccc3ccccc3[n+]2C)cc1` was tested, and the T/C [9] was 97 % of control, the T/C (dose: 25.0 mg/kg/injection, schedule: Q04DX003 (ip), vehicle: saline with Tween-80) was 101 % of control and the T/C [1] was 106 % of control. For the same compound, the T/C (dose: 50.0 mg/kg/injection, schedule: Q04DX003 (ip), vehicle: saline with Tween-80) was 98 % of control and the T/C [10] was 94 % of control.
For `COc1cc(C=Nc2ccc(-c3nc(C)sc3C)cc2)ccc1N(CCCl)CCCl`, the T/C (dose: 11.0 mg/kg/injection, schedule: Q01DX009 (ip), vehicle: carboxymethylcellulose (CMC)) was 200 % of control, the T/C (dose: 11.1 mg/kg/injection, schedule: Q01DX001 (ip), vehicle: carboxymethylcellulose (CMC)) was 118 % of control and the T/C (dose: 16.6 mg/kg/injection, schedule: Q01DX009 (ip), vehicle: carboxymethylcellulose (CMC)) was 90 % of control. For the same compound, the T/C [15] was 202 % of control.
`Brc1cnc(Br)s1` was tested, and the T/C (dose: 44.0 mg/kg/injection, schedule: Q04DX002 (ip), vehicle: Klucel (hydroxypropylcellulose) (HPC)) was 97 % of control, the T/C (dose: 67.0 mg/kg/injection, schedule: Q04DX002 (ip), vehicle: Klucel (hydroxypropylcellulose) (HPC)) was 109 % of control and the T/C [16] was 116 % of control. For the same compound, the T/C (dose: 150.0 mg/kg/injection, schedule: Q04DX002 (ip), vehicle: Klucel (hydroxypropylcellulose) (HPC)) was 113 % of control.
With `C=C1CCC(c2ccccc2)N(C)C1=O` (centres undefined) the T/C (dose: 25.0 mg/kg/injection, schedule: Q01DX001 (ip), vehicle: saline with Tween-80) was 104 % of control, the T/C (dose: 50.0 mg/kg/injection, schedule: Q01DX001 (ip), vehicle: saline with Tween-80) was 101 % of control and the T/C (dose: 100.0 mg/kg/injection, schedule: Q01DX001 (ip), vehicle: saline with Tween-80) was 98 % of control. The T/C (dose: 200.0 mg/kg/injection, schedule: Q01DX001 (ip), vehicle: saline with Tween-80) was 98 % of control.
